Source: a compilation of properties of binary mixtures (doi:10.1016/j.fluid.2021.113175)

Assay: xn = mol fraction of the nth substance listed
Details: 100 kPa, x2 = 0

Row | Compound | viscosity (293.15 K) [mPa·s] | viscosity (298.15 K) [mPa·s] | viscosity (303.15 K) [mPa·s] | viscosity (313.15 K) [mPa·s] | viscosity (323.15 K) [mPa·s] | viscosity (338.15 K) [mPa·s] | viscosity (308.15 K) [mPa·s] | viscosity (318.15 K) [mPa·s] | viscosity (328.15 K) [mPa·s] | viscosity (333.15 K) [mPa·s]
1 | CCO + CC[N+]1(C)CCCC1.COP(=O)([O-])OC | 1.19 | 1.08 | 0.98 | 0.82 | 0.69 | 0.54 | – | – | – | –
2 | CCO + COP(=O)([O-])OC.C[N+]1(CCO)CCCC1 | 1.19 | – | 0.98 | 0.82 | 0.69 | 0.54 | 0.9 | 0.75 | 0.63 | 0.58
